This is an account of results in patent US9174985B2, “Salts of 7-(2,3-di-p-tolyl-7,8-dihydropyrido[2,3-b]pyrazin-5(6H)-yl)heptanoic acid as IP receptor agonists” (Novartis AG, priority 2012, dated 2015).

The structures appear in SMILES notation. Where a name gives a salt, the structure may show the parent alone.

Series [1] relates to rats. As to conditions: cited from earlier work.
Series [2] in a line: solubility. In kind it is physicochemical. As to conditions: free form, in water.
Series [3] in a line: stability (physical stability, stability under light). In kind it is physicochemical. As to conditions: for stability: free form, under light.
The nature of series [4]: pH of a 1% solution/suspension in water. In kind it is physicochemical. Particulars: 10 mg salt in 1 mL water, ultrasound about 5 min, stirred one hour at RT, batch B, 24.3-25.2° C. On the procedure: A mixture of 10 mg salt and 1 mL water was treated about 5 min with ultrasound. Afterwards, the mixture was stirred for one hour at RT followed by pH measurement.
For series [5], the system named is human airway epithelial cells. As to conditions: human airway epithelial cells in vitro; cited from earlier work.
The subject of series [6] is former smokers. As to conditions: oral; cited from earlier work.
Series [7] deals with β2-adrenoceptor (Homo sapiens, UniProt P07550). Particulars: cited from earlier work.
A short description of series [8]: dissolution rate. In kind it is physicochemical. As to conditions: compared to the free form.
Where [9] appears, read: listed as free form of 7-(2,3-di-p-tolyl-7,8-dihydropyrido[2,3-b]pyrazin-5(6H)-yl)heptanoi.

Chain of β2-adrenoceptor (P07550 whole entry, species assumed): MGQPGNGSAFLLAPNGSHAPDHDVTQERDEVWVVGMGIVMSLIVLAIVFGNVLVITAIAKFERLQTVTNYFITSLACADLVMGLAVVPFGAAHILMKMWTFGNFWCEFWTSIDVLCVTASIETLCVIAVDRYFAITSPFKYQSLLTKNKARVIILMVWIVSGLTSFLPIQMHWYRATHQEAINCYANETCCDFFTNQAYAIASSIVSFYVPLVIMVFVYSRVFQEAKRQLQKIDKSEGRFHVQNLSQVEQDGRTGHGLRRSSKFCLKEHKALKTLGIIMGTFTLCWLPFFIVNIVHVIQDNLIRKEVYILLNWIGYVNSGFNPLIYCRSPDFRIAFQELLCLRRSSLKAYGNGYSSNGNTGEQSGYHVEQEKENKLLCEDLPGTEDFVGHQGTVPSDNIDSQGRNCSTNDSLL

With `CC#CCC(C)[C@H](O)/C=C/[C@@H]1[C@H]2c3cccc(CCCC(=O)O)c3O[C@H]2C[C@H]1O` (mixture of isomers) [Beraprost], the “development of experimental cigarette smoke-induced emphysema” value in series [1] is on record as “protected”.
`Cc1ccc(-c2nc3c(nc2-c2ccc(C)cc2)N(CCCCCCC(=O)O)CCC3)cc1` [7-(2,3-di-p-tolyl-7,8-dihydropyrido[2,3-b]pyrazin-5(6H)-yl)heptanoic acid]: the solubility result in series [2] is reported as “poorly soluble in water”; in series [2] (setting [9]) it was “poor solubility”. Also, the stability result in series [3] is “low stability under light”; in series [3] (setting [9]), “poor solubility and stability”.
Regarding `Cc1ccc(-c2nc3c(nc2-c2ccc(C)cc2)N(CCCCCCC(=O)O)CCC3)cc1` [Example 1, 7-(2,3-di-p-tolyl-7,8-dihydropyrido[2,3-b]pyrazin-5(6H)-yl)heptanoate sulfate], the physical stability entry in series [3] is reported as “good”. In addition, in series [4] (sulfate), the “pH of a 1% solution/suspension in water” value turned out to be 1.78.
As to `Cc1ccc(-c2nc3c(nc2-c2ccc(C)cc2)N(CCCCCCC(=O)O)CCC3)cc1` [Example 2, 7-(2,3-di-p-tolyl-7,8-dihydropyrido[2,3-b]pyrazin-5(6H)-yl)heptanoate xinafoate], in series [3], the photostability entry is “good”. Besides, the “pH of a 1% solution/suspension in water” value in series [4] is reported as 6.46.
As for `Cc1ccc(-c2nc3c(nc2-c2ccc(C)cc2)N(CCCCCCC(=O)[O-])CCC3)cc1.[Na+]` [Example 3, 7-(2,3-di-p-tolyl-7,8-dihydropyrido[2,3-b]pyrazin-5(6H)-yl)heptanoate sodium], the physical stability result in series [3] is “good”.
On to `Cc1ccc(-c2nc3c(nc2-c2ccc(C)cc2)N(CCCCCCC(=O)O)CCC3)cc1` [Example 4, 7-(2,3-di-p-tolyl-7,8-dihydropyrido[2,3-b]pyrazin-5(6H)-yl)heptanoate hydrochloride], for which the “pH of a 1% solution/suspension in water” value in series [4] (hydrochloride) turned out to be 2.3.
Regarding `O=C(O)c1cccc(/C=C2/C[C@@H]3[C@@H](/C=C/[C@@H](O)C4CCCCC4)[C@H](O)C[C@@H]3O2)c1` [Taprostene], the “generation of the CD8+ T cell chemoattractants CXCL9 and CXCL10” value in series [5] is “suppressed”.
`CC#CCC(C)[C@H](O)/C=C/[C@@H]1[C@H]2C/C(=C/CCCC(=O)O)C[C@H]2C[C@H]1O` (stereo partly shown) [iloprost]: the endobronchial dysplasia result in series [6] was “significantly improved”.
For `CCc1cc2c(cc1CC)CC(NC[C@H](O)c1ccc(O)c3[nH]c(=O)ccc13)C2` [indacaterol, (R)-5-[2-(5,6-diethyl-indan-2-ylamino)-1-hydroxyethyl]-8-hydroxy-1H-quinolin-2-one], in series [7], the duration of action result was “over 24 hours” and the onset of action entry is given as “about 10 minutes”.
Regarding `CS(=O)(=O)O.Cc1ccc(-c2nc3c(nc2-c2ccc(C)cc2)N(CCCCCCC(=O)O)CCC3)cc1` [mesylate salt of 7-(2,3-di-p-tolyl-7,8-dihydropyrido[2,3-b]pyrazin-5(6H)-yl)heptanoic acid], in series [8], the dissolution rate entry is reported as “significantly higher dissolution rate compared to the free form”.
